From US9907763B2, “Method of treating or preventing the visual function loss by using 4-(phenylsulfanyl)butane-2-one (4-PSB-2)” (NATIONAL SUN YAT-SEN UNIVERSITY, priority 2016, dated 2018)

Experiments:
COX-2 = experiment: Immunoblotting and immunohistochemical analysis of COX-2 expression in the retina after ON crush; type: in vivo, Wistar rats; settings: two weeks after ON crush, 5 mg/kg s.c. once, ratio to GAPDH, n=3, result in words
Experimental: (§1) Forty five adult male Wistar rats weighing 150-180 g (7-8 weeks old) were used and grouped (Table 1). All manipulations were performed with animals under general anesthesia induced by an intramuscular injection of a mixture of ketamine (40 mg/kg body weight (BW)) and xylazine (4 mg/kg BW). In addition, topical 0.5% Alcaine eye drops (Alcon, Puurs, Belgium) were used to perform topical anesthesia.
(§2) After general anesthesia and topical Alcaine eye drop application, the ON was exposed and isolated. Care was taken to avoid damaging the small vessels around the ON. A vascular clip (60 g micro-vascular clip) was then applied to the ON 2 mm posterior to the globe for 30 seconds. After the surgery, Tobradex eye ointment (Alcon, Puurs, Belgium) was administered. The rats were kept on electric heating pads at 37° C. for recovery. […]
(§3) IHC of ED1 (CD68, a marker of macrophage/microglia) in the ONs and IHC of CD11b, iNOS and COX-2 in the retina using monoclonal antibodies (ED1, 1:50; CD11b, 1:20; AbD Serotec, Oxford, UK) or polyclonal antibodies (iNOS, 1:50; Cell signaling Inc. Beverly, Mass., USA; COX-2, 1:50; Santa Cruz, Calif., USA) were performed. […] For comparison, ED1 positive cells were counted in six HPF at the lesion site of ON (six rats in each group). Cd11b positive cells were counted in six HPF and three sections per eye were averaged. […]

RGC layer = experiment: TUNEL assay in retinal sections after optic nerve crush; type: in vivo, Wistar rats; settings: RGC layer of retina; two weeks after ON crush; 5 mg/kg s.c. once; n=6; sham 2.0±1.7, PBS 14.8±6.5
Experimental: as §1
as §2, with “recovery. The control group received a sham operation that entailed ON exposure without the crush.” for “recovery.”
To ensure the use of equivalent fields for comparison, all retinal frozen sections were prepared with retinas at 1-2 mm distance from the optic nerve head. […] The TUNEL positive cells in the RGC layer of each sample were counted in ten high powered fields (HPF, ×400 magnification), and three sections per eye were averaged.

RGCs = experiment: Retrograde Fluoro-Gold labeling of RGCs and RGC densities after optic nerve crush; type: in vivo, Wistar rats; settings: two weeks after ON crush
Experimental: as §1
(§4) After general anesthesia and topical Alcaine eye drop application, the ON was exposed and isolated. Care was taken to avoid damaging the small vessels around the ON. A vascular clip (60 g micro-vascular clip) was then applied to the ON 2 mm posterior to the globe for 30 seconds. After the surgery, Tobradex eye ointment (Alcon, Puurs, Belgium) was administered. The rats were kept on electric heating pads at 37° C. for recovery. The control group received a sham operation that entailed ON exposure without the crush. 4-PSB-2 (5 mg/kg in 0.2 mL phosphate-buffered saline) or phosphate buffered saline (PBS control) was immediately administered after ON crush once by subcutaneous injection.
With this technique, only the RGCs with intact axons projected to the SC were labeled with FG. The procedure was performed based on Chang et al (Exp. Eye Res., 2004, 118, 109-116). Briefly, one week before sacrificing, the rats were anesthetized using a ketamine (100 mg/kg) and Xylazine (10 mg/kg) mixture, and then placed in a stereotactic apparatus. […] One week after labeling, the eyeballs were harvested after euthanasia of the animals. The eyeballs were placed in 10% formalin and iii the whole retina was then carefully dissected, flattened. The retina was examined with a 400× epi-fluorescence microscope equipped with a filter set (excitation filter=350-400 nm; barrier filter=515 nm), as well as a digital camera and software. The retinas were examined for RGCs at a distance of 1 or 3 mm from the optic nerve head in order to provide the central and mid-peripheral RGC densities respectively (FIG. 1A). RGCs were counted in eight areas randomly of […]/each in the central (about 40% of the central area) (FIG. 1B), and eight areas randomly of 38,250 mm^2/each in the mid-peripheral (about 30% of the mid-periphery) regions of each retina. The averages of these areas were taken as the mean density of RGCs per retina. RGC survival percentage was defined as the number of RGCs in each treatment group divided by the number of RGCs in the sham operated retina, multiplied by 100.

Wistar rats = experiment: Flash visual-evoked potentials (FVEPs) after optic nerve crush; type: in vivo; settings: 2 weeks after ON crush; 5 mg/kg s.c. once; n=6; sham 83±3 ms, PBS 154±23 ms
Experimental: as §1, §4
For the functional evaluation of the ON, FVEPs were recorded 2 weeks after ON crush in 18 experimental rats. […]

Cd11b = experiment: Immunohistochemistry of Cd11b in the retina after optic nerve crush; type: in vivo, Wistar rats; settings: two weeks after ON crush, 5 mg/kg s.c. once, n=6, sham 2.3±1.7, PBS 40.0±9.7
Experimental: as §1, §2
(§5) IHC of ED1 (CD68, a marker of macrophage/microglia) in the ONs and IHC of CD11b, iNOS and COX-2 in the retina using monoclonal antibodies (ED1, 1:50; CD11b, 1:20; AbD Serotec, Oxford, UK) or polyclonal antibodies (iNOS, 1:50; Cell signaling Inc. Beverly, Mass., USA; COX-2, 1:50; Santa Cruz, Calif., USA) were performed. […] For comparison, ED1 positive cells were counted in six HPF at the lesion site of ON (six rats in each group). Cd11b positive cells were counted in six HPF and three sections per eye were averaged.

iNOS = experiment: Immunoblotting and immunohistochemical analysis of iNOS expression in the retina after ON crush; type: in vivo, Wistar rats; settings: two weeks after ON crush, 5 mg/kg s.c. once, ratio to GAPDH, n=3, result in words
Experimental: as §1, §2, §3

[1] = system: ED1 (CD68, a marker of macrophage/microglia); experiment: Immunohistochemistry of ED1 in the ONs after optic nerve crush; type: in vivo, Wistar rats; settings: lesion site of ON; two weeks after ON crush; 5 mg/kg s.c. once; n=6; sham 4.3±2.5, PBS 67.3±21.1
Experimental: as §1, §2, §5

Structure (SMILES): CC(=O)CCSc1ccccc1 [4-PSB-2, 4-(phenylsulfanyl)butan-2-one]
- COX-2 expression in the retina (COX-2): prevented the increase
- TUNEL positive cells in the RGC layer (RGC layer): 6.7±3.4 positive cells/HPG
- densities of RGCs in the central retina (RGCs; central retina, 5 mg/kg once by subcutaneous injection immediately after crush, n=6): 1342±473 /mm^2
- RGC survival, central retina (RGCs; central retina, relative to sham operated retina, 5 mg/kg s.c. once): 56.8 % survival
- RGC survival rate increase as compared to the PBS-treated group, central retina (RGCs; central retina, vs PBS-treated group, p<0.05): approximately 35.7%
- densities of RGCs in mid-peripheral retina (RGCs; mid-peripheral retina, 5 mg/kg once by subcutaneous injection immediately after crush, n=6): 915±244 /mm^2
- RGC survival, mid-peripheral retina (RGCs; mid-peripheral retina, relative to sham operated retina, 5 mg/kg s.c. once): 65.3 % survival
- RGC survival rate increase as compared to the PBS-treated group, mid-peripheral retina (RGCs; mid-peripheral retina, vs PBS-treated group, p<0.05): ~35.3%
- latency of the P1 wave (FVEP) (Wistar rats): 118 ± 14 ms
- Cd11b positive cells/HPF (Cd11b): 17.3±5.9 positive cells/HPF
- iNOS expression in the retina (iNOS): prevented the increase
- ED1 positive cells/HPF [1]: 33.5±14.5 positive cells/HPF
